Key:
[1] = target: Adenosine A2A (Homo sapiens (Human), UniProt P29274); assay: A2A Tag-lite HTRF assay (Example C); conditions: Tag-lite Adenosine A2A labeled cells, Red antagonist fluorescent ligand 12.5 nM, one-site competitive binding; read-out: A2A_Ki
Method: Example C. A2A Tag-Lite® HTRF Assay
Assays were conducted in black low volume 384-well polystyrene plates (Greiner 784076-25) in a final volume of 10 μL. Test compounds were first serially diluted in DMSO and 100 nl added to the plate wells before the addition of other reaction components. The final concentration of DMSO was 1%. Tag-lite® Adenosine A2A labeled cells (CisBio C1TT1A2A) were diluted 1:5 into Tag-lite buffer (CisBio LABMED) and spun 1200 g for 5 mins. The pellet was resuspended at a volume 10.4× the initial cell suspension volume in Tag-lite buffer, and Adenosine A2A Receptor Red antagonist fluorescent ligand (CisBio L0058RED) added at 12.5 nM final concentration. 10 ul of the cell and ligand mix was added to the assay wells and incubated at room temperature for 45 minutes before reading on a PHERAstar FS plate reader (BMG Labtech) with HTRF 337/620/665 optical module. Percent binding of the fluorescent ligand was calculated; where 100 nM of A2A antagonist control ZM 241385 (Tocris 1036) displaces the ligand 100% and 1% DMSO has 0% displacement. The % binding data versus the log of the inhibitor concentration was fitted to a one-site competitive binding model (GraphPad Prism version 7.02) where the ligand constant=12.5 nM and the ligand Kd=1.85 nM.

[2] = target: human adenosine A2B receptor (Homo sapiens (Human), UniProt P29275); assay: Adenosine A2B receptor cyclic AMP GS assay (Example B); assay type: cell-based; conditions: HEK-293 cells expressing human A2B, agonist NECA 12 nM, cAMP accumulation (FRET); read-out: A2B_cAMP_EC50
Sequence of human adenosine A2B receptor (P29275 whole entry): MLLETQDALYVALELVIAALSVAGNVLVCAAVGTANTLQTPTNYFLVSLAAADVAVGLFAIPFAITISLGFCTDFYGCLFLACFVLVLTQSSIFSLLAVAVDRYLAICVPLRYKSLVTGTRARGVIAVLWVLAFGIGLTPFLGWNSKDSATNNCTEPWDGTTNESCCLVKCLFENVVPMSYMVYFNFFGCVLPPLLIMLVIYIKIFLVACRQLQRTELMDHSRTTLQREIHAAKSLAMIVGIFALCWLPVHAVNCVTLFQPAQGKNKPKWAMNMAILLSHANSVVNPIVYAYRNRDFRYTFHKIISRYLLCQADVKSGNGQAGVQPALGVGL
Method: Example B. Adenosine A2B Receptor Cyclic AMP GS Assay
Stably transfected HEK-293 cells expressing the human adenosine A2B receptor (Perkin Elmer) were maintained in MEM culture medium with 10% FBS and 100 μg/ml Geneticin (Life Technologies). 18 to 24 hours prior to assay, geneticin was removed from culture. The cisbio cAMP-GS Dynamic kit utilizing the FRET (Fluorescence Resonance Energy Transfer) technology was used to measure cAMP accumulation in the cells. Compounds of the present disclosure at an appropriate concentration were mixed with 10000 cells/well in white 96 well half area plates (Perkin Elmer) for 30 min at RT gently shaking. Agonist, NECA (R&D Technologies) at 12 nM was added to each well for 60 min at RT gently shaking. Detection reagents, d2-labeled cAMP (acceptor) and anti-cAMP cryptate (donor) were added to each well for 60 min at RT gently shaking. Plates were read on Pherastar (BMG Labtech), fluorescence ratio 665/620 was calculated and EC50 determination was performed by fitting the curve of percent of control versus the log of the compound concentration using GraphPad Prism.

Sequence of Adenosine A2A (P29274 whole entry): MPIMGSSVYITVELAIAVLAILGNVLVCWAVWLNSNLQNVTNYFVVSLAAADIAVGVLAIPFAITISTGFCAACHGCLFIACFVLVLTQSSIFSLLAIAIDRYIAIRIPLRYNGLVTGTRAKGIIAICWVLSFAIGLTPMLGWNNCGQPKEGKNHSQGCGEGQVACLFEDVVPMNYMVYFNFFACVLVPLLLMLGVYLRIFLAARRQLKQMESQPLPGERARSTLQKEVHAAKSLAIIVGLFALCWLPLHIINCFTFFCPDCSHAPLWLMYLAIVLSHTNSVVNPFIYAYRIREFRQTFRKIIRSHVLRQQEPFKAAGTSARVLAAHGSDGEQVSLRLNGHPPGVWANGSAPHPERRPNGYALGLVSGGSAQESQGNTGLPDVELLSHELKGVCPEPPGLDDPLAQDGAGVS

Row | Compound | Ki [1] | EC50 [2]
1 | Cc1cccc(COc2nc3c(-c4ccc(=O)n(C)c4)c(-c4cccc(C#N)c4)nc(N)n3n2)n1 [Example 55, 3-(5-amino-8-(1-methyl-6-oxo-1,6-dihydropyridin-3-yl)-2-((6-methylpyridin-2-yl)methoxy)-[1,2,4]triazolo[1,5-c]pyrimidin-7-yl)benzonitrile] | ≤ 10 nM | 10 to 100 nM
2 | Cc1cccc(COc2nc3c(-c4ccncc4C)c(-c4cccc(C#N)c4)nc(N)n3n2)n1 [Example 57, 3-(5-amino-2-((6-methylpyridin-2-yl)methoxy)-8-(3-methylpyridin-4-yl)-[1,2,4]triazolo[1,5-c]pyrimidin-7-yl)benzonitrile] | ≤ 10 nM | 10 to 100 nM
3 | Cc1cc(-c2c(-c3cccc(C#N)c3)nc(N)n3nc(OCc4cccc(C)n4)nc23)cc(C)n1 [Example 58, 3-(5-amino-8-(2,6-dimethylpyridin-4-yl)-2-((6-methylpyridin-2-yl)methoxy)-[1,2,4]triazolo[1,5-c]pyrimidin-7-yl)benzonitrile] | ≤ 10 nM | 100 to 1000 nM
4 | COc1cc(-c2c(-c3cccc(C#N)c3)nc(N)n3nc(OCc4cccc(C)n4)nc23)cc(C)n1 [Example 59, 3-(5-amino-8-(2-methoxy-6-methylpyridin-4-yl)-2-((6-methylpyridin-2-yl)methoxy)-[1,2,4]triazolo[1,5-c]pyrimidin-7-yl)benzonitrile] | ≤ 10 nM | 10 to 100 nM
5 | Cc1cccc(CNc2nc3c(-c4ccncn4)c(-c4cccc(C#N)c4)nc(N)n3n2)n1 [Example 65, 3-(5-amino-2-(((6-methylpyridin-2-yl)methyl)amino)-8-(pyrimidin-4-yl)-[1,2,4]triazolo[1,5-c]pyrimidin-7-yl)benzonitrile] | ≤ 10 nM | 10 to 100 nM
6 | Cc1cccc(CNc2nc3c(-c4ccc(=O)n(C)n4)c(-c4cccc(C#N)c4)nc(N)n3n2)n1 [Example 67, 3-(5-amino-8-(1-methyl-6-oxo-1,6-dihydropyridazin-3-yl)-2-(((6-methylpyridin-2-yl)methyl)amino)-[1,2,4]triazolo[1,5-c]pyrimidin-7-yl)benzonitrile] | ≤ 10 nM | 10 to 100 nM
7 | Cc1cccc(CNc2nc3c(-c4ccncc4C)c(-c4cccc(C#N)c4)nc(N)n3n2)n1 [Example 68, 3-(5-amino-2-(((6-methylpyridin-2-yl)methyl)amino)-8-(3-methylpyridin-4-yl)-[1,2,4]triazolo[1,5-c]pyrimidin-7-yl)benzonitrile] | ≤ 10 nM | ≤ 10 nM
8 | Cc1cc(-c2c(-c3cccc(C#N)c3)nc(N)n3nc(NCc4cccc(C)n4)nc23)cc(C)n1 [Example 69, 3-(5-amino-8-(2,6-dimethylpyridin-4-yl)-2-(((6-methylpyridin-2-yl)methyl)amino)-[1,2,4]triazolo[1,5-c]pyrimidin-7-yl)benzonitrile] | ≤ 10 nM | > 1000 nM
9 | COc1cc(-c2c(-c3cccc(C#N)c3)nc(N)n3nc(NCc4cccc(C)n4)nc23)cc(C)n1 [Example 70, 3-(5-amino-8-(2-methoxy-6-methylpyridin-4-yl)-2-(((6-methylpyridin-2-yl)methyl)amino)-[1,2,4]triazolo[1,5-c]pyrimidin-7-yl)benzonitrile] | ≤ 10 nM | 100 to 1000 nM

From patent US20250034153A1, “TRIAZOLOPYRIMIDINES AS A2A / A2B INHIBITORS” (Incyte Corporation, priority 2019, published 2025)
